Measurements taken from PubChem BioAssay AID1963448 (Molecular Pharmacology Branch, DTP, NCI, 2024).
pIC50: −log10 of the molar value.

Tested on: 616215-338-R-J1-PDC complex spheroid growth, % test/control
Assay: Anticancer human tumor 616215-338-R-J1-PDC patient-derived colon adenocarcinoma cell line growth inhibition [Asc]
Details: for pIC50: curve of first compound; for viability, T/C: stronger effect = lower value
How it was run: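 Stromal components (HUVEC and hMSC) are co-assembled with the cancer cells into multicellular spheroids. Drugs are then added singly or paired, at concentrations falling by half-log increments from a clinically achievable maximum, capped at 10 microM without known Cmax.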

[1] = second compound 0.03 µM, first compound 0.0316 µM
[2] = second compound 0.03 µM, first compound 0.1 µM
[3] = second compound 0.03 µM, first compound 0.316 µM
[4] = second compound 0.03 µM, first compound 1 µM
[5] = second compound 0.03 µM, first compound 3.16 µM
[6] = second compound 0.03 µM, first compound 10 µM
[7] = second compound 0.0949 µM, first compound 0.0316 µM
[8] = second compound 0.0949 µM, first compound 0.1 µM
[9] = second compound 0.0949 µM, first compound 0.316 µM
[10] = second compound 0.0949 µM, first compound 1 µM
[11] = second compound 0.0949 µM, first compound 3.16 µM
[12] = second compound 0.0949 µM, first compound 10 µM
[13] = second compound 0.3 µM, first compound 0.0316 µM
[14] = second compound 0.3 µM, first compound 0.1 µM
[15] = second compound 0.3 µM, first compound 0.316 µM
[16] = second compound 0.3 µM, first compound 1 µM
[17] = second compound 0.3 µM, first compound 3.16 µM
[18] = second compound 0.3 µM, first compound 10 µM
[19] = second compound 0.949 µM, first compound 0.0316 µM
[20] = second compound 0.949 µM, first compound 0.1 µM
[21] = second compound 0.949 µM, first compound 0.316 µM
[22] = second compound 0.949 µM, first compound 1 µM
[23] = second compound 0.949 µM, first compound 3.16 µM
[24] = second compound 0.949 µM, first compound 10 µM
[25] = second compound 3 µM, first compound 0.0316 µM
[26] = second compound 3 µM, first compound 0.1 µM
[27] = second compound 3 µM, first compound 0.316 µM
[28] = second compound 3 µM, first compound 1 µM
[29] = second compound 3 µM, first compound 3.16 µM
[30] = second compound 3 µM, first compound 10 µM
[31] = second compound 0.03 µM, first compound 0.00316 µM
[32] = second compound 0.03 µM, first compound 0.01 µM
[33] = second compound 0.0949 µM, first compound 0.00316 µM
[34] = second compound 0.0949 µM, first compound 0.01 µM
[35] = second compound 0.3 µM, first compound 0.00316 µM
[36] = second compound 0.3 µM, first compound 0.01 µM
[37] = second compound 0.949 µM, first compound 0.00316 µM
[38] = second compound 0.949 µM, first compound 0.01 µM
[39] = second compound 3 µM, first compound 0.00316 µM
[40] = second compound 3 µM, first compound 0.01 µM
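Also: spheroids exposed to agents for seven days before readout.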
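For viability, T/C in this document: 100% = DMSO vehicle control viability.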

pIC50 (second compound 0.03 µM)	pIC50 (second compound 0.0949 µM)	pIC50 (second compound 0.3 µM)	pIC50 (second compound 0.949 µM)	pIC50 (second compound 3 µM)	Compound	viability, T/C [1]	viability, T/C [2]	viability, T/C [3]	viability, T/C [4]	viability, T/C [7]	viability, T/C [8]	viability, T/C [9]	viability, T/C [10]	viability, T/C [13]	viability, T/C [14]	viability, T/C [15]	viability, T/C [16]	viability, T/C [19]	viability, T/C [20]	viability, T/C [21]	also measured
< 5.00	< 5.00	5.77	5.79	> 7.50	C#Cc1c(F)ccc2cc(O)cc(-c3ncc4c(N5CC6CCC(C5)N6)nc(OCC56CCCN5CC(F)C6)nc4c3F)c12 (stereo not given) + CCN1C(C(=O)NC23CCC(C(=O)O)(CC2)CC3)C(c2cccc(Cl)c2F)C2(C(=O)Nc3cc(Cl)ccc32)C12CCCCC2	91.1%	98.6%	93.5%	94.3%	84.9%	85.3%	91.4%	82.5%	56.4%	57.1%	61.6%	54%	63.6%	66%	60.5%	viability, T/C [5]: 84.4%; viability, T/C [6]: 67.5%; viability, T/C [11]: 80.3%; viability, T/C [12]: 68.1%; viability, T/C [17]: 44.7%; viability, T/C [18]: 38.4%; viability, T/C [22]: 51%; viability, T/C [23]: 46.5%; viability, T/C [24]: 30%; viability, T/C [25]: 36.6%; viability, T/C [26]: 42.4%; viability, T/C [27]: 36.1%; viability, T/C [28]: 32.4%; viability, T/C [29]: 20.1%; viability, T/C [30]: 17.4%
5.25	5.31	5.43	5.42	> 7.50	C=C(F)C(=O)N1CCN(c2nc(OCC3CCCN3C)nc3c2CCN(c2cccc4cccc(Cl)c24)C3)CC1CC#N (stereo not given) + CCN1C(C(=O)NC23CCC(C(=O)O)(CC2)CC3)C(c2cccc(Cl)c2F)C2(C(=O)Nc3cc(Cl)ccc32)C12CCCCC2	106%	103%	109%	106%	106%	96.7%	99.3%	93.4%	69.9%	67.9%	66%	65.7%	62.2%	65.5%	67.6%	viability, T/C [5]: 101%; viability, T/C [6]: 0.87%; viability, T/C [11]: 82%; viability, T/C [12]: 0.4%; viability, T/C [17]: 58.2%; viability, T/C [18]: 0.52%; viability, T/C [22]: 63.8%; viability, T/C [23]: 59.9%; viability, T/C [24]: 0.26%; viability, T/C [25]: 48.9%; viability, T/C [26]: 48.8%; viability, T/C [27]: 46.2%; viability, T/C [28]: 45.6%; viability, T/C [29]: 46.2%; viability, T/C [30]: 0.36%
< 5.00	< 5.00	< 5.00	< 5.00	7.07	C=CC(=O)N1CCN(c2nc(=O)n(-c3c(C)ccnc3C(C)C)c3nc(-c4c(O)cccc4F)c(F)cc23)C(C)C1 (stereo not given) + CCN1C(C(=O)NC23CCC(C(=O)O)(CC2)CC3)C(c2cccc(Cl)c2F)C2(C(=O)Nc3cc(Cl)ccc32)C12CCCCC2	100%	96.3%	102%	102%	89.3%	93.7%	89.1%	88.8%	68.5%	64.5%	66.8%	69.2%	61.7%	65%	65.5%	viability, T/C [5]: 98.2%; viability, T/C [6]: 101%; viability, T/C [11]: 92.9%; viability, T/C [12]: 85.5%; viability, T/C [17]: 67.3%; viability, T/C [18]: 68.7%; viability, T/C [22]: 58.1%; viability, T/C [23]: 60%; viability, T/C [24]: 57.2%; viability, T/C [25]: 48.2%; viability, T/C [26]: 49.8%; viability, T/C [27]: 52.5%; viability, T/C [28]: 50.3%; viability, T/C [29]: 48.9%; viability, T/C [30]: 45.6%
< 6.00	< 6.00	< 6.00	< 6.00	> 8.50	CNC(C)C(=O)NC1CN(S(=O)(=O)c2cccc(S(=O)(=O)N3CCC4CCC(C(=O)NC(c5ccccc5)c5ccccc5)N4C(=O)C(NC(=O)C(C)NC)C3)c2)CCC2CCC(C(=O)NC(c3ccccc3)c3ccccc3)N2C1=O (stereo not given) + CCN1C(C(=O)NC23CCC(C(=O)O)(CC2)CC3)C(c2cccc(Cl)c2F)C2(C(=O)Nc3cc(Cl)ccc32)C12CCCCC2	87.4%	97.2%	91%	87%	95.7%	86.6%	76%	81.3%	62.3%	58.9%	66.5%	61.2%	67.4%	63.5%	72.8%	viability, T/C [31]: 95.2%; viability, T/C [32]: 96.1%; viability, T/C [33]: 90.9%; viability, T/C [34]: 91.4%; viability, T/C [35]: 74.1%; viability, T/C [36]: 58.8%; viability, T/C [37]: 71.5%; viability, T/C [38]: 75.5%; viability, T/C [22]: 78.5%; viability, T/C [39]: 41.1%; viability, T/C [40]: 49.4%; viability, T/C [25]: 51.6%; viability, T/C [26]: 48.7%; viability, T/C [27]: 47.2%; viability, T/C [28]: 52.8%
6.82	7.13	7.66	8.02	> 8.50	COc1c(OCCCN2CCOCC2)ccc2c3n(c(=NC(=O)c4cnc(N)nc4)nc12)CCN3 + CCN1C(C(=O)NC23CCC(C(=O)O)(CC2)CC3)C(c2cccc(Cl)c2F)C2(C(=O)Nc3cc(Cl)ccc32)C12CCCCC2	99.7%	63.6%	26%	13.1%	74.2%	41%	15.2%	6.02%	46%	23.4%	9.03%	3.12%	38.4%	14%	5.66%	viability, T/C [31]: 95.7%; viability, T/C [32]: 99.4%; viability, T/C [33]: 89.3%; viability, T/C [34]: 81.2%; viability, T/C [35]: 59.7%; viability, T/C [36]: 59.2%; viability, T/C [37]: 55.1%; viability, T/C [38]: 47%; viability, T/C [22]: 1.65%; viability, T/C [39]: 45.7%; viability, T/C [40]: 40.4%; viability, T/C [25]: 27.4%; viability, T/C [26]: 7.37%; viability, T/C [27]: 3.24%; viability, T/C [28]: 0.71%
